Some test systems named below: A549 NSCLC; CAKI-1 renal; HOP-62 NSCLC; IGROV1 ovarian; MOLT-4 leukemia; OVCAR-3 ovarian; OVCAR-4 ovarian; PC-3 prostate; SR leukemia; UO-31 renal.
Test in all cases: NCI anticancer screen, dose series, 48 h

The text below walks through data of PubChem BioAssay (NCI).

Structures are written as SMILES.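 Step 1: Grow cells in 96-well plates. Step 2: Expose to compound for 48 hours at 5 concentrations. Step 3: Interpolate endpoints linearly; if unreached, use highest concentration. At the GI50, growth is halved. TGI marks complete inhibition of growth.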

Regarding `Brc1ccc(Nc2nc3ccccc3nc2Nc2ccc(Br)cc2)cc1`, the GI50 in the experiment with A549 NSCLC was 0.393 µM; with CAKI-1 renal, 0.714 µM; in the experiment with HOP-62 NSCLC, 1.43 µM; in the experiment with IGROV1 ovarian it was 1.43 µM; in the experiment with MOLT-4 leukemia it was 1.15 µM; in the experiment on OVCAR-3 ovarian it was 0.401 µM. For the same compound, the GI50 with OVCAR-4 ovarian was 1.25 µM; with PC-3 prostate it was 0.637 µM; in the experiment with SR leukemia, 0.715 µM; in the experiment on UO-31 renal, 1.83 µM. In addition, the TGI with A549 NSCLC was found to be 11 µM; in the experiment with CAKI-1 renal, 6.61 µM; in the experiment with HOP-62 NSCLC it was 4.12 µM; in the experiment on IGROV1 ovarian, 13.5 µM; with MOLT-4 leukemia it was 9.45 µM; in the experiment with OVCAR-3 ovarian it was 1.54 µM. Further, the TGI worked out at 8.98 µM with OVCAR-4 ovarian, 10.4 µM in the experiment with PC-3 prostate, 5.52 µM in the experiment on SR leukemia and 6.3 µM in the experiment on UO-31 renal.

For the compound `Cc1cc(C(O)(c2ccc(Nc3ccccc3)cc2)c2ccc(Nc3ccc(S(=O)(=O)O)cc3)cc2)ccc1N` (stereo not given), the GI50 in the experiment with A549 NSCLC was 1.55 µM; in the experiment on CAKI-1 renal, 2.24 µM; in the experiment with HOP-62 NSCLC, 2.27 µM; in the experiment on IGROV1 ovarian, 1.52 µM; in the experiment on MOLT-4 leukemia, 0.445 µM; with OVCAR-3 ovarian it was 1.11 µM. Moreover, the GI50 in the experiment on OVCAR-4 ovarian is 1.31 µM; in the experiment with PC-3 prostate, 1.31 µM; with SR leukemia, 0.713 µM; in the experiment on UO-31 renal it was 1.12 µM. In addition, the TGI in the experiment with A549 NSCLC was 3.25 µM; with CAKI-1 renal it was 9.14 µM; with HOP-62 NSCLC, 4.65 µM; in the experiment on IGROV1 ovarian it was 3.4 µM; in the experiment on MOLT-4 leukemia, greater than 100 µM; in the experiment on OVCAR-3 ovarian it was 2.49 µM. The TGI was 3.39 µM in the experiment on OVCAR-4 ovarian, 6.18 µM in the experiment with PC-3 prostate, greater than 100 µM with SR leukemia and 2.38 µM in the experiment on UO-31 renal.

As to `CCN(CC)CC(O)COc1c(Br)c(Br)c(Br)c2c1OC(C)(C)C2` (stereo not given), the GI50 in the experiment with A549 NSCLC is 3.49 µM; in the experiment on CAKI-1 renal, 6.8 µM; in the experiment on HOP-62 NSCLC, 4.03 µM; with IGROV1 ovarian, 1.91 µM; with MOLT-4 leukemia it was 1.67 µM; in the experiment with OVCAR-3 ovarian, 3.47 µM. Further, the GI50 in the experiment with OVCAR-4 ovarian was 6.56 µM; in the experiment with PC-3 prostate it was 2.81 µM; with SR leukemia it was 1.75 µM; in the experiment with UO-31 renal, 5.82 µM. In addition, the TGI in the experiment with A549 NSCLC was found to be 13.5 µM; in the experiment with CAKI-1 renal it was 23.8 µM; in the experiment with HOP-62 NSCLC, 19.7 µM; in the experiment with IGROV1 ovarian, 5.83 µM; with MOLT-4 leukemia, 3.68 µM; in the experiment on OVCAR-3 ovarian, 16.3 µM. The TGI with OVCAR-4 ovarian amounted to 22.8 µM; with PC-3 prostate it was 11.5 µM; with SR leukemia it was 3.81 µM; in the experiment on UO-31 renal, 26.5 µM.
